pIC50: −log10 of the molar value.
Target: Dam MTase (Escherichia coli, UniProt P0AEE8)
Assay: coupled fluorescence assay (molecular beacon methylation, DpnI cleavage, strand displacement amplification) with commercial Dam MTase
Assay type: biochemical

Sequence of Dam MTase (P0AEE8 whole entry): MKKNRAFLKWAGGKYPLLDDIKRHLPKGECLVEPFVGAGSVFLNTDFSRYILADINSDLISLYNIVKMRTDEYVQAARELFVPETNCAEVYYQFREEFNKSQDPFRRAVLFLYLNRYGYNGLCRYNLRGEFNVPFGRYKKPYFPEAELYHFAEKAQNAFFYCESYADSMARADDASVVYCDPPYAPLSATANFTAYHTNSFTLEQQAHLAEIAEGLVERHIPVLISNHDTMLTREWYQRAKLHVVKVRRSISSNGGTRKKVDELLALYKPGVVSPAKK

Compound: O=c1[nH]cc(F)c(=O)[nH]1 [5-fluorouracil]
- pIC50: 6.15

Reference: publication PMC6385671, “An integrated-molecular-beacon based multiple exponential strand displacement amplification strategy for ultrasensitive detection of DNA methyltransferase activity” (Chemical Science, 2018)
